Tests used:
[1] = system: ERK1/2, JNK1/2, p38 in RAW 264.7 macrophages; experiment: MAPK phosphorylation (Western blotting) in LPS-activated macrophages; format: cell-based, murine; settings: Citral 10 μg/ml; LPS 1 μg/ml 0-60 min; p<0.05
Text: (§1) RAW-Blue™ cells (Murine macrophages RAW264.7 stably transfected with the NF-κB reporter gene) purchased from InvivoGen (San Diego, Calif.). LPS (from Escherichia coli 0111:B4) and mouse antibodies against phospho-ERK1/2, phospho-JNK1/2, and phospho-p38 (all from Sigma, St. Louis, Mo.). Rabbit antibodies against mouse ERK1, JNK1, and p38, and HRP-labeled second antibodies were purchased from Santa Cruz Biotechnology, and IL-1β, IL-6, and TNF-α ELISA kits from R&D Systems. ROS production assay, NO production assay, NF-κB reporter assay, ELISA, and Western blotting were performed as described previously.

[2] = system: CD3+ T cells, F4/80+ macrophages; experiment: Mouse FSGS model: renal infiltration of T cells and macrophages (immunohistochemistry); format: in vivo; settings: days 14 and 28
Procedure: A progressive type of mouse FSGS model was used, particularly characterized by EPHLs, a key histopathology index of progression of FSGS, peri-glomerular inflammation, and progressive glomerular hyalinosis/sclerosis. The FSGS model was induced in 8-week-old male BALB/c mice (National Laboratory Animal Center, Taipei, Taiwan) by intravenous injection of a single dose of adriamycin (0.10 mg/10 g body weight) (Pfizer, New York, N.Y.) as described previously. […] Age- and sex-matched BALB/c mice were used as normal controls. Urine samples were collected in metabolic cages on days 3, 7, 14, 21, and 28. […] The concentration of urine protein was determined using BCA kits (Pierce, Rockford, Ill.) as described previously and normalized to urine creatinine (Cr) levels measured using kits (Wako Pure Chemical Industries, Osaka, Japan), as described previously. Serum levels of blood urea nitrogen (BUN) and Cr were determined using BUN kits and Cr kits (both from Fuji Dry-Chem Slide, Fuji Film Medical, Tokyo, Japan), as described previously.
Renal tissues were formalin-fixed, embedded in paraffin, and sections (4 μm) prepared and stained with hematoxylin and eosin (H&E) for renal histopathology as described previously or TUNEL stained for apoptosis as described previously. Renal pathology was examined and renal lesions scored as described previously. […]

[3] = system: RAW 264.7 macrophages; experiment: NO production assay (Griess reaction) in LPS-activated macrophages; format: cell-based, murine; settings: 30 min preincubation, then 24 h LPS 1 μg/ml; p<0.05
Procedure: as §1, with “ROS production was measured as the relative fluorescence intensity. […] The data are expressed as the mean±SD for three separate experiments. *p<0.05, **p<0.01 compared to the LPS-treated group. RAW-Blue™” for “RAW-Blue™”

[4] = system: mouse FSGS model (adriamycin-induced, BALB/c mice); experiment: Mouse FSGS model: renal histopathology (H&E) and Col-IV immunohistochemistry; format: in vivo; settings: days 14 and 28, Citral 200 mg/kg daily by gavage, p<0.01
Procedure: (§2) A progressive type of mouse FSGS model was used, particularly characterized by EPHLs, a key histopathology index of progression of FSGS, peri-glomerular inflammation, and progressive glomerular hyalinosis/sclerosis. The FSGS model was induced in 8-week-old male BALB/c mice (National Laboratory Animal Center, Taipei, Taiwan) by intravenous injection of a single dose of adriamycin (0.10 mg/10 g body weight) (Pfizer, New York, N.Y.) as described previously. […] Age- and sex-matched BALB/c mice were used as normal controls. Urine samples were collected in metabolic cages on days 3, 7, 14, 21, and 28. Renal cortical tissues and blood samples were collected when the mice were sacrificed and stored appropriately for further analysis. The concentration of urine protein was determined using BCA kits (Pierce, Rockford, Ill.) as described previously and normalized to urine creatinine (Cr) levels measured using kits (Wako Pure Chemical Industries, Osaka, Japan), as described previously. Serum levels of blood urea nitrogen (BUN) and Cr were determined using BUN kits and Cr kits (both from Fuji Dry-Chem Slide, Fuji Film Medical, Tokyo, Japan), as described previously.
(§3) Renal tissues were formalin-fixed, embedded in paraffin, and sections (4 μm) prepared and stained with hematoxylin and eosin (H&E) for renal histopathology as described previously or TUNEL stained for apoptosis as described previously. Renal pathology was examined and renal lesions scored as described previously. For EPHLs and sclerosis, at least 50 glomeruli in sections were examined for each mouse. To detect apoptosis in renal tissues, TUNEL staining was performed using an in situ apoptosis detection kit (Chemicon, Temecula, Calif.) according to the manufacturer's instructions. For immunohistochemistry, methyl Carnoy solution-fixed and paraffin-embedded renal sections were prepared and incubated with goat antibodies against mouse collagen IV (Col-IV) (Southern Biotech, AL) or rabbit antibodies against phosphorylated mouse NF-κB p65 (Cell Signaling Technology, MA), F4/80 (Serotec, Raleigh, N.C.), or CD3 (Serotec), then with horseradish-conjugated rabbit anti-goat IgG antibodies or swine anti-rabbit IgG antibodies (both from Dako, Carpinteria, Calif.). Quantitative image analysis software (Pax-it; Paxcam, VIIIa Park, Ill.) was used to score Col-IV staining and the number of phosphorylated NF-κB p65-, CD3-, F4/80-, or TUNEL-positive cells as described previously.

[5] = system: NF-κB in RAW-Blue cells; experiment: NF-κB reporter assay (secreted embryonic alkaline phosphatase, QUANTI-Blue); format: cell-based, murine; settings: 30 min preincubation, then 24 h LPS 1 μg/ml
Procedure: as §1, with “ROS production was measured as the relative fluorescence intensity. […] The data are expressed as the mean±SD for three separate experiments. *p<0.05, **p<0.01 compared to the LPS-treated group. RAW-Blue™” for “RAW-Blue™”

[6] = Adverse side effects in animals; settings: in vivo
[7] = system: RAW 264.7 macrophages; experiment: ROS production assay in LPS-activated macrophages; format: cell-based, murine; settings: Citral 10 μg/ml; 30 min before and during LPS (1 μg/ml) stimulation, 0-4 h
Procedure: as §1, with “ROS production was measured as the relative fluorescence intensity. […] The data are expressed as the mean±SD for three separate experiments. *p<0.05, **p<0.01 compared to the LPS-treated group. RAW-Blue™” for “RAW-Blue™”

[8] = system: renal apoptosis; caspase-3, caspase-8, caspase-9, Bax/Bcl-2; experiment: Mouse FSGS model: renal apoptosis (TUNEL), caspases, Bax/Bcl-2 ratio; format: in vivo
Procedure: as §2, §3
Cytoplasmic and nuclear proteins from renal tissues were prepared using a kit (Active Motif, Tokyo, Japan) according to the manufacturer's instructions and target proteins detected by immunoblotting using goat antibodies against mouse Nrf2 or p47^phox, (Santa Cruz Biotechnology, Santa Cruz, Calif.) or rabbit antibodies against mouse NQO1 (Abcam), caspase-3, caspase-8, or caspase-9 (all from Cell Signaling Technology, MA) or Bcl2 or Bax (both from Santa Cruz Biotechnology), then with horseradish-conjugated rabbit anti-goat IgG antibodies or goat-anti-rabbit IgG antibodies (both from Santa Cruz Biotechnology) as described previously. Anti-β-actin antibody (Santa Cruz Biotechnology) was used as internal controls for the nuclear and cytosolic target proteins, respectively. Renal HO-1 levels were measured using a commercial ELISA kit (R&D Systems, Minneapolis, Minn.) according to the manufacturer's instructions.

CC(C)=CCCC(C)=CC=O (racemic) [Citral, 3,7-dimethyl-2,6-octadienal]
LPS-induced phosphorylation of ERK1/2 [1]: significantly inhibited | LPS-induced phosphorylation of JNK1/2 [1]: significantly inhibited | peri-glomerular infiltration of macrophages (F4/80+) ([2]; p<0.005): significantly decreased | renal peri-glomerular infiltration of T cells (CD3+) ([2]; p<0.05): markedly inhibited | LPS-induced increase in NO generation [3]: inhibited | glomerular EPHLs ([4]; H&E): greatly decreased | glomerular hyalinosis/sclerosis ([4]; H&E): greatly decreased | peri-glomerular inflammation ([4]; H&E): greatly decreased | renal Col-IV expression ([4]; immunohistochemistry): markedly inhibited | NF-κB transcriptional activity in LPS-stimulated macrophages [5]: reduced | adverse side effects to animals [6]: no apparent adverse side effects | LPS-induced increase in ROS production [7]: reduced | mature form (p18 fragment) of renal caspase-8 ([8]; FSGS+vehicle vs FSGS+Citral vs normal control mice, data not shown): no detectable difference | renal apoptosis (TUNEL) in the glomerulus ([8]; day 28, p<0.005): significantly inhibited | renal apoptosis (TUNEL) in the renal tubule ([8]; days 14 and 28): significantly inhibited | mature form (p17 fragment) of caspase-3, renal levels ([8]; days 14 and 28, p<0.01): significantly inhibited | mature form (p37 fragment) of caspase-9, renal levels ([8]; days 14 and 28, p<0.05): suppressed

From patent US8993637B2 (priority 2013, dated 2015)
